# Reference: patent US10253251B2, “Nanomatrix separation of chromophores and uses thereof in luminescent devices” (RAMOT AT TEL-AVIV UNIVERSITY LTD., priority 2010, dated 2019)
# Where “and” joins values, the source holds several entries; their conditions need not be identical. Identical values can stand only once.
# Legend:
# [1] = system: Bovine Submaxillary Mucin (BSM); assay: Loading capacity of BSM glycoprotein for hydrophobic ligands (ligand uptake); format: binding; settings: for BSM NBL (average number of bound ligands per BSM monomer): LUP multiplied by BSM monomer-to-ligand molecular weight ratio; for BSM LUP (ligand uptake percentage, ligand-to-BSM weight ratio): extracted ligand (hydrolysis-extraction, UV-vis) divided by BSM protein (PAS assay)
# Description: In order to determine the loading capacity of BSM glycoprotein for the examined ligands, elemental analysis measurements were preformed. The carbon content of each complex (in the case of C60 and MWNT containing complexes) was compared to the carbon content found in the native BSM. This was used to determine the amount of ligand in the complex and by that, the mucin-ligand weight ratio (ligand uptake percentage—LUP, Table 1).
# In this procedure, the amount of the BSM protein in the mucin complex was analyzed by a periodic acid/Schiff (PAS) assay.
# In more detail, in order to determine the amount of C60, a hydrolysis-extraction process was used which included heating of the complex in a heterogeneous mixture of hydrochloric acid and chloroform at 80° C., in a sealed vessel, and then the amount of a chloroform-extracted ligand was determined by UV-vis spectroscopy.
# Additional calculation determined the average number of bound ligand (NBL) per BSM monomer by multiplication of the LUP value by the BSM monomer-to-ligand molecular weight ratio (Eq. 2).
# In order to ascertain the capacity of BSM glycoprotein for various ligands, the amounts of Ant, Bap and Cor ligands in corresponding BSM complexes were determined. The amount of the BSM protein in each BSM complex was analyzed by a periodic acid/Schiff (PAS) assay.
# In order to determine the amount of ligand in each complex, the above-described hydrolysis-extraction process was employed and determined the amount of chloroform-extracted ligand by UV-vis spectroscopy.
# The LUP values were calculated by dividing the amount of the extracted ligand by the amount of the BSM protein present in the complex. […] The average number of bound ligands (NBL) per BSM monomer was also calculated by multiplication of the LUP value by the BSM monomer-to-ligand molecular weight ratio, as discussed above.
# (§1) To a solution of BSM or deglycosylated BSM protein (4 mg mL^−1, 1.5 mL) in sodium phosphate buffer (2 mM, pH 7.2) a solid ligand (1 mg) was added at room temperature and the mixture was stirred at 500-700 rpm for 48 hrs. After that time, the reaction mixture was filtered through a 0.45 μm filter and the solution was loaded on a Sephadex G-25 gel-permeation column (Pharmacia Biotech). Protein complexes were eluted with a sodium phosphate buffer (20 mM, pH 7.2) and elution was monitored by UV-vis spectroscopy.
# (§2) The amount of BSM or deglycosylated BSM protein in complexes was determined by using a standard periodic acid/Schiff assay (Sigma-Aldrich). The amount of a ligand in each complex was determined by UV-vis spectroscopy after protein hydrolysis and quantitative extraction of the ligand by chloroform. To a sample of complex in a sodium phosphate buffer (1 mL, 20 mM, pH 7.2), chloroform (1 mL) and hydrochloric acid (1 mL, 12 M) were added at room temperature. The reaction mixture was sealed in a glass pressure vessel and heated at 80° C. with vigorous stirring for 3 hrs. After cooling to a room temperature, the organic phase containing extracted ligand was analyzed by UV-vis spectroscopy.
# [2] = system: deglycosylated form of BSM (dBSM); assay: Loading capacity of deglycosylated BSM (dBSM) for hydrophobic ligands; format: binding, bovine; settings: for dBSM NBL (number of bound ligands per dBSM monomer) / dBSM UP (%): deglycosylated BSM
# Method: To evaluate this assumption, a deglycosylated form of BSM (dBSM) was prepared and repeated binding experiments with this modified protein were carried out. Complexes of C60 with dBSM were prepared as described above for the complexation with BSM.
# dBSM was prepared by base-catalyzed β-elimination of periodate-oxidized glycans, using method reported by Kim and coworkers.
# A deglycosylated form of BSM (dBSM) was prepared and the binding experiments with this protein were repeated. Complexes of Ant, Bap and Cor ligands with dBSM were prepared as described above for the complexation with BSM. dBSM was prepared as described above in the context of fullerene, nanotubes, and inorganic nanostructures.
# A solution of BSM protein (100 mg) in NaOH (0.1 M, 10 mL) was stirred at room temperature for 30 min. The resulting solution was cooled to 4° C. NaIO4 (100 mM) in acetate buffer (100 mM, pH 4.5) was added and the mixture was stirred overnight at 4° C. After that time, glycine (200 mg) was added and the reaction mixture was allowed to warm to room temperature and was stirred for 30 min. NaOH (1.0 M, 1 mL) was added and the solution was stirred for an additional 30 min. The resulting solution was dialyzed against deionized water overnight and was then centrifuged and lyophilized. The degree of deglycosylation was measured by using a standard periodic acid/Schiff assay (Sigma-Aldrich).
# as §1, §2
# [3] = Binding/dissolution of hydrophobic ligands by oligosaccharide: arabic acid; settings: dissolved ligand divided by amount of oligosaccharide
# Method: (§3) The subsequent series of complementary experiments was designed to examine capabilities of different size oligosaccharides to bind selected hydrophobic ligands.
# (§4) Representative oligosaccharides, including β-cyclodextrin, starch, arabic acid and lactose, were incubated with C60, according to the described above protocol for the BSM complexes preparation. […] Therefore, it is believed that interactions between the saccharide residues and the polypeptide backbone in a sugar-substituted polypeptide dictate certain arrangements of the saccharide moieties in space, and these arrangements play a role in the complexation of various hydrophobic materials.
# (§5) The subsequent series of complementary experiments was designed to examine capabilities of different size oligosaccharides to bind selected hydrophobic ligands. Representative oligosaccharides, including β-cyclodextrin, starch, arabic acid and lactose, were incubated with Ant, Bap and Cor ligands, according to the described above protocol for the BSM complexes preparation. The LUP values were calculated by dividing the amount of the dissolved ligand by the amount of the oligosaccharide present in the complex (if formed). No clear preference was for binding of particular ligands to certain oligosaccharides. In comparison to BSM, the dissolution capability of arabic acid was drastically lower for all tested ligands. It was practically negligible in the cases of lactose, β-cyclodextrin and starch (Table 1).
# [4] = Binding/dissolution of hydrophobic ligands by oligosaccharide: starch; settings: dissolved ligand divided by amount of oligosaccharide
# Method: as §3, §4, §5
# [5] = Binding/dissolution of hydrophobic ligands by oligosaccharide: β-cyclodextrin; settings: dissolved ligand divided by amount of oligosaccharide
# Method: as §3, §4
# as §5, with “It was practically negligible in the cases of lactose, β-cyclodextrin and starch (Table 1).” left out
# [6] = Incubation of representative oligosaccharides with C60, detection in solution by UV-vis or SEC-HPLC; format: physicochemical; settings: β-cyclodextrin, starch, arabic acid and lactose
# Method: as §3, §4
Compound,BSM NBL (average number of bound ligands per BSM monomer) [1],"BSM LUP (ligand uptake percentage, ligand-to-BSM weight ratio) [1]",dBSM NBL (number of bound ligands per dBSM monomer) [2],dBSM UP (%) [2],Arabic Acid LUP [3] [%],Starch LUP [4] [%],"BSM LUP (ligand uptake percentage, ligand-to-BSM weight ratio) ([1]; listed as Coronene) [%]",average number of bound ligand (NBL) per BSM monomer [1],"uptake capacity of dBSM, ligands per monomer [2]",β-Cyclodextrin LUP [5] [%],C60 detected in the solution after incubation with oligosaccharides [6]
"c1ccc2cc3ccccc3cc2c1 [Ant, anthracene]",43 ± 9,4.5% and 4.5 ± 0.9%,2.2 ± 0.3,0.28 ± 0.06%,0.56 ± 0.11,,,,,,
"c1ccc2c(c1)cc1ccc3cccc4ccc2c1c34 [Bap, benzo[a]pyrene]",36 ± 8,5.4 ± 1.1%,1.2 ± 0.2,0.23 ± 0.05%,0.09 ± 0.02,0.11 ± 0.02,,,,,
"c1cc2ccc3ccc4ccc5ccc6ccc1c1c2c3c4c5c61 [Cor, coronene]",44 ± 9,7.8 ± 1.5%,2.1 ± 0.2,0.61 ± 0.12%,0.18 ± 0.04,0.18 ± 0.04,7.7,,,,
"c12c3c4c5c1c1c6c7c2c2c8c3c3c9c4c4c%10c5c5c1c1c6c6c%11c7c2c2c7c8c3c3c8c9c4c4c9c%10c5c5c1c1c6c6c%11c2c2c7c3c3c8c4c4c9c5c1c1c6c2c3c41 [Ligand C60, C60]",36 ± 6,15.1% and 15.1 ± 2.4%,1.9 ± 0.1,1.4% and 1.41 ± 0.28%,,0.35 ± 0.07,,40 ligands per monomeric unit of BSM,2 ligand molecules per monomeric unit,0.12 ± 0.02,no C60 was detected
